Details: Liquid, isochoric method

CCCCCCn1cc[n+](C)c1.F[B-](F)(F)F [1-hexyl-3-methylimidazolium tetrafluoroborate]
Details	mass density [kg/m3]
219.92 K, 2501.7 kPa	1205.15
225.14 K, 11244 kPa	1204.69
230.79 K, 1012.8 kPa	1196.2
231.39 K, 21744 kPa	1204.14
236.44 K, 10093 kPa	1195.71
236.46 K, 30111 kPa	1203.69
242.31 K, 19417 kPa	1195.2
243.65 K, 1941.6 kPa	1186.98
243.68 K, 41792 kPa	1203.05
248.82 K, 49885 kPa	1202.6
249.02 K, 10085 kPa	1186.52
249.02 K, 30013 kPa	1194.61
255.69 K, 20148 kPa	1185.95
255.99 K, 40643 kPa	1194.01
256.48 K, 1742.5 kPa	1177.35
262.31 K, 10140 kPa	1176.87
262.31 K, 30102 kPa	1185.39
263.02 K, 51186 kPa	1193.4
268.9 K, 59865 kPa	1192.9
269.12 K, 19855 kPa	1176.3
269.39 K, 40201 kPa	1184.79
269.9 K, 2119.2 kPa	1166.18
275.8 K, 10046 kPa	1165.7
275.8 K, 29402 kPa	1175.74
276.43 K, 50285 kPa	1184.19
283.5 K, 20904 kPa	1165.06
283.57 K, 60349 kPa	1183.59
283.61 K, 39900 kPa	1175.1
284.27 K, 2189.9 kPa	1156.39
290.66 K, 30442 kPa	1164.48
290.67 K, 30768 kPa	1165.27
290.73 K, 10282 kPa	1155.88
290.73 K, 29904 kPa	1164.49
290.94 K, 49928 kPa	1174.49
298.15 K, 104 kPa	1146.14
298.15 K, 39688 kPa	1164.06
298.15 K, 40557 kPa	1164.66
298.17 K, 39707 kPa	1163.88
298.17 K, 40239 kPa	1163.87
298.52 K, 20112 kPa	1155.26
299.11 K, 712.5 kPa	1145.27
299.38 K, 61164 kPa	1173.79
305.93 K, 49286 kPa	1163.44
305.93 K, 49685 kPa	1163.24
306.82 K, 10007 kPa	1144.66
306.83 K, 30854 kPa	1154.59
314.42 K, 60539 kPa	1162.55
315.25 K, 20171 kPa	1144
315.38 K, 41468 kPa	1153.9
315.84 K, 1234.2 kPa	1133.94
322.71 K, 50376 kPa	1153.32
323.55 K, 9964.4 kPa	1133.35
323.55 K, 29837 kPa	1143.36
330.59 K, 59794 kPa	1152.68
332.16 K, 39991 kPa	1142.68
332.36 K, 19953 kPa	1132.67
333.47 K, 1089.8 kPa	1121.71
340.92 K, 49956 kPa	1141.99
341.61 K, 9779.8 kPa	1121.11
341.63 K, 29941 kPa	1131.97
349.19 K, 1374.3 kPa	1111.71
349.88 K, 60027 kPa	1141.28
350.49 K, 39672 kPa	1131.28
351.2 K, 20298 kPa	1120.38
357.12 K, 9595.1 kPa	1111.13
357.12 K, 26381 kPa	1119.93
357.12 K, 46792 kPa	1130.77

CCCCn1cc[n+](C)c1.O=S(=O)([O-])C(F)(F)F [1-butyl-3-methylimidazolium trifluoromethanesulfonate]
Details	mass density [kg/m3]
290.5 K, 40403 kPa	1326.13
290.51 K, 20585 kPa	1315.76
290.53 K, 10565 kPa	1310.84
290.69 K, 30827 kPa	1321.18
291.26 K, 1592.1 kPa	1304.62
298.15 K, 9757.7 kPa	1303.63
298.15 K, 19969 kPa	1309.73
298.15 K, 20141 kPa	1309.72
298.15 K, 30285 kPa	1314.63
298.15 K, 50367 kPa	1324.98
298.16 K, 9701.7 kPa	1303.63
298.16 K, 19936 kPa	1309.73
298.16 K, 30053 kPa	1314.64
298.16 K, 40303 kPa	1320.08
298.16 K, 40410 kPa	1320.08
298.17 K, 10081 kPa	1303.62
298.17 K, 10432 kPa	1304.22
298.17 K, 50464 kPa	1324.97
299.03 K, 2480.8 kPa	1298.81
305.41 K, 59674 kPa	1323.93
305.45 K, 10034 kPa	1297.93
305.45 K, 19292 kPa	1303.2
305.9 K, 39945 kPa	1313.54
306 K, 29921 kPa	1308.61
306 K, 50404 kPa	1318.95
306.05 K, 19559 kPa	1302.52
307.17 K, 1752 kPa	1291.55
313.41 K, 59599 kPa	1317.95
313.93 K, 49845 kPa	1312.46
314.21 K, 9839.1 kPa	1290.64
314.21 K, 20109 kPa	1296.78
314.21 K, 39744 kPa	1307.53
314.32 K, 29477 kPa	1301.43
314.85 K, 831 kPa	1284.6
321.66 K, 59111 kPa	1311.47
321.82 K, 29288 kPa	1295.81
323.07 K, 39773 kPa	1300.33
323.16 K, 50452 kPa	1306.39
323.18 K, 10082 kPa	1283.58
323.2 K, 20072 kPa	1289.53
323.4 K, 1581.8 kPa	1277.54
330.39 K, 28233 kPa	1288.68
330.5 K, 39240 kPa	1294.79
331.3 K, 241.1 kPa	1270.51
331.38 K, 10182 kPa	1276.63
331.38 K, 19050 kPa	1282.64
331.38 K, 59986 kPa	1305.41
331.78 K, 49813 kPa	1299.3
339.84 K, 49769 kPa	1293.74
340.71 K, 39738 kPa	1287.53
340.73 K, 10118 kPa	1269.5
340.75 K, 20227 kPa	1275.61
340.93 K, 60046 kPa	1298.28
341.39 K, 30102 kPa	1281.54
341.68 K, 1330.2 kPa	1262.9
347.88 K, 58421 kPa	1292.89
350.01 K, 30185 kPa	1274.67
350.14 K, 9957.7 kPa	1262.06
350.15 K, 19909 kPa	1268.55
350.31 K, 39671 kPa	1280.63
350.38 K, 50208 kPa	1286.54

— the NIST ThermoML archive (doi:10.1021/je200903m)
